These results are taken from US9458181B2, “Cathepsin cysteine protease inhibitors” (Merck Sharp & Dohme Corp., priority 2013, dated 2016).

One test addresses human cathepsin K (UniProt P43236). The experiment in a line: Cathepsin K Assay (hrbCat K). The class given is biochemical. The conditions noted are these: human cathepsin K 0.4 nM, Z-Leu-Arg-AMC 8 μM, pH 5.5, 15 min preincubation; read-out: hrbCat K IP. In outline:
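Human cathepsin K (0.4 nM) in pH 5.5 MES buffer with EDTA, DTT and 10% DMSO was preincubated 15 min at room temperature with compound from a ⅓ dilution series (500-0.025 μM DMSO stocks). Z-Leu-Arg-AMC (8 μM) was then added, and AMC release was followed fluorometrically (Ex 360/Em 460 nm) for 30 min; inhibition was fitted to a dose-response model.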

For the next test, the target named is T1, human cathepsin F (Homo sapiens, UniProt Q9UBX1).
T1 sequence (Q9UBX1 271-484): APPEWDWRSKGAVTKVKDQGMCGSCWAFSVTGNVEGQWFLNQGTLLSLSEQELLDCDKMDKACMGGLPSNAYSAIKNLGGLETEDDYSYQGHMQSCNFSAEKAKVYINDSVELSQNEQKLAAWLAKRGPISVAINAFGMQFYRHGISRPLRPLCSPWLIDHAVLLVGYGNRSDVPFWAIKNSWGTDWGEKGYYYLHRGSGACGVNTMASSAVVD
Put plainly: Cathepsin F assay (hCat F). The conditions noted are these: human cathepsin F 10 nM, Z-Phe-Arg-AMC 8 μM, pH 5.5, 15 min preincubation; read-out: hCat F IP. The format is biochemical. In outline:
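Fluorogenic read-out: cleavage of Z-Phe-Arg-AMC (8 μM in added buffer) was followed at Ex 360/Em 460 nm for 20 min, with dose-response fitting of percent inhibition. Before substrate addition, 10 nM human enzyme was incubated 15 min at room temperature with compounds (DMSO stocks 500–0.025 μM) in pH 5.5 MES/EDTA/DTT buffer containing 10% DMSO.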

Where only a bound is given, the exact number is not on record here.

With `N#CC1(NC(=O)[C@@H]2CCCC[C@H]2c2oc(CC(F)(F)F)nc2-c2ccc(N3CCS(=O)(=O)CC3)cc2)CC1` [Example 15, (1R,2R)-N-(1-cyanocyclopropyl)-2-(4-(4-(1,1-dioxidothiomorpholino)phenyl)-2-(2,2,2-trifluoroethyl)oxazol-5-yl)cyclohexanecarboxamide], the IC50 came out at 1.8 nM on human cathepsin K and 640 nM at human cathepsin F.
For `N#CC1(NC(=O)[C@@H]2CC(F)(F)CC[C@H]2c2oc(CC(F)(F)F)nc2-c2ccc(N3CCS(=O)(=O)CC3)cc2)CC1` [Example 16, (1R,2R)-N-(1-cyanocyclopropyl)-2-(4-(4-(1,1-dioxidothiomorpholino)phenyl)-2-(2,2,2-trifluoroethyl)oxazol-5-yl)-5,5-difluorocyclohexane-carboxamide] the same measures were 0.61 nM and 209 nM.
On to `Cc1nc(-c2ccc(N3CCS(=O)(=O)CC3)cc2)c([C@@H]2CCC(F)(F)C[C@H]2C(=O)NC2(C#N)CC2)o1` [Example 18, (1R,2R)-N-(1-cyanocyclopropyl)-2-(4-(4-(1,1-dioxidothiomorpholino)phenyl)-2-methyloxazol-5-yl)-5,5-difluorocyclohexane-carboxamide], for which the results for the IC50 at human cathepsin K and on human cathepsin F were 0.48 nM and 178 nM, respectively.
For `CC(C)(C)c1nc(-c2ccc(N3CCS(=O)(=O)CC3)cc2)c([C@@H]2CCC(F)(F)C[C@H]2C(=O)NC2(C#N)CC2)o1` [Example 19, (1R,2R)-2-(2-(tert-butyl)-4-(4-(1,1-dioxidothiomorpholino)phenyl)oxazol-5-yl)-N-(1-cyanocyclopropyl)-5,5-difluorocyclohexane-carboxamide] the same measures were 0.54 nM and 81 nM.
Take `N#CC1(NC(=O)[C@@H]2CC(F)(F)CC[C@H]2c2oc(-c3ccc(F)cc3)nc2-c2ccc(N3CCS(=O)(=O)CC3)cc2)CC1` [Example 20, (1R,2R)-N-(1-cyanocyclopropyl)-2-(4-(4-(1,1-dioxidothiomorpholino)phenyl)-2-(4-fluorophenyl)oxazol-5-yl)-5,5-difluorocyclohexane-carboxamide]: the figures for the IC50 at human cathepsin K and at human cathepsin F were 0.28 nM and 71 nM, respectively.
With `Cc1nc(-c2ccc(C(=O)NC3(C#N)CC3)cc2)c([C@@H]2CCCC[C@H]2C(=O)NC2(C#N)CC2)o1` [Example 21, N-(1-cyanocyclopropyl)-4-(5-((1R,2R)-2-((1-cyanocyclopropyl)carbamoyl)cyclohexyl)-2-methyloxazol-4-yl)benzamide], the IC50 on human cathepsin K is 61.9 nM; at human cathepsin F it was at least 10000 nM.
For `Cc1nc(-c2ccc(C(=O)N3CCOCC3)cc2)c([C@@H]2CCCC[C@H]2C(=O)NC2(C#N)CC2)o1` [Example 22, (1R,2R)-N-(1-cyanocyclopropyl)-2-(2-methyl-4-(4-(morpholine-4-carbonyl)phenyl)oxazol-5-yl)cyclohexanecarboxamide] the same measures were 5.09 nM and 6160 nM.
As to `CS(=O)(=O)C1CN(c2ccc(-c3nc(C(F)(F)C(F)(F)F)oc3[C@@H]3CCCC[C@H]3C(=O)NC3(C#N)CC3)cc2)C1` [Example 23, (1R,2R)-N-(1-cyanocyclopropyl)-2-(4-(4-(3-(methylsulfonyl)azetidin-1-yl)phenyl)-2-(perfluoroethyl)oxazol-5-yl)cyclohexanecarboxamide], the values for the IC50 on human cathepsin K and at human cathepsin F were 0.62 nM and 383 nM, respectively.
For `N#CC1(NC(=O)[C@@H]2CC(F)(F)CC[C@H]2c2oc(-c3ccc(F)cc3)nc2-c2ccc(C(=O)N3CCOCC3)cc2)CC1` [Example 24, (1R,2R)-N-(1-cyanocyclopropyl)-5,5-difluoro-2-(2-(4-fluorophenyl)-4-(4-(morpholine-4-carbonyl)phenyl)oxazol-5-yl)cyclohexanecarboxamide] the same measures were 0.68 nM and 181 nM.
The corresponding values for `CS(=O)(=O)C1CN(c2ccc(-c3nc(C(F)(F)F)oc3[C@@H]3CCCC[C@H]3C(=O)NC3(C#N)CC3)cc2)C1` [Example 25] are 0.66 nM and 447 nM.
`N#CC1(NC(=O)[C@@H]2CCCC[C@H]2c2oc(C(F)(F)C(F)(F)F)nc2-c2ccc(C(=O)N3CCOCC3)cc2)CC1` [Example 26, (1R,2R)-N-(1-cyanocyclopropyl)-2-(4-(4-(morpholine-4-carbonyl)phenyl)-2-(perfluoroethyl)oxazol-5-yl)cyclohexanecarboxamide]: the IC50 on human cathepsin K is 3.64 nM; at human cathepsin F, 2960 nM.
The corresponding values for `N#CC1(NC(=O)[C@@H]2CCCC[C@H]2c2oc(-c3ccc(F)cc3F)nc2-c2ccc(N3CCS(=O)(=O)CC3)cc2)CC1` [Example 27, (1R,2R)-N-(1-cyanocyclopropyl)-2-(2-(2,4-difluorophenyl)-4-(4-(1,1-dioxidothiomorpholino)phenyl)oxazol-5-yl)cyclohexanecarboxamide] are 0.37 nM and 681 nM.
As to `N#CC1(NC(=O)[C@@H]2CCCC[C@H]2c2oc(-c3ccccn3)nc2-c2ccc(N3CCS(=O)(=O)CC3)cc2)CC1` [Example 28, (1R,2R)-N-(1-cyanocyclopropyl)-2-(4-(4-(1,1-dioxidothiomorpholino)phenyl)-2-(pyridin-2-yl)oxazol-5-yl)cyclohexanecarboxamide], the IC50 at human cathepsin K was determined as 1.26 nM; on human cathepsin F, 1360 nM.
The corresponding values for `N#CC1(NC(=O)[C@@H]2CCCC[C@H]2c2oc(-c3cccnc3)nc2-c2ccc(N3CCS(=O)(=O)CC3)cc2)CC1` [Example 29, (1R,2R)-N-(1-cyanocyclopropyl)-2-(4-(4-(1,1-dioxidothiomorpholino)phenyl)-2-(pyridin-3-yl)oxazol-5-yl)cyclohexanecarboxamide] are 0.48 nM and 565 nM.
For `N#CC1(NC(=O)[C@@H]2CCCC[C@H]2c2oc(-c3ccncc3F)nc2-c2ccc(N3CCS(=O)(=O)CC3)cc2)CC1` [Example 30, (1R,2R)-N-(1-cyanocyclopropyl)-2-(4-(4-(1,1-dioxidothiomorpholino)phenyl)-2-(3-fluoropyridin-4-yl)oxazol-5-yl)cyclohcxanecarboxamide] the same measures were 0.43 nM and 757 nM.
The corresponding values for `N#CC1(NC(=O)[C@@H]2C[C@@H](F)CC[C@H]2c2oc(-c3ccc(F)cc3)nc2-c2ccc(N3CCS(=O)(=O)CC3)cc2)CC1` [Example 31, (1R,2R,5S)-N-(1-cyanocyclopropyl)-2-(4-(4-(1,1-dioxidothiomorpholino)phenyl)-2-(4-fluorophenyl)oxazol-5-yl)-5-fluorocyclohexane-carboxamide] are 0.61 nM and 1390 nM.
With `N#CC1(NC(=O)[C@@H]2CCCC[C@H]2c2oc(-c3ccc(F)cn3)nc2-c2ccc(N3CCS(=O)(=O)CC3)cc2)CC1` [Example 32, (1R,2R)-N-(1-cyanocyclopropyl)-2-(4 (4-(1,1-dioxidothiomorpholino)phenyl)-2-(5-fluoropyridin-2-yl)oxazol-5-yl)cyclohexanecarboxamide], the IC50 at human cathepsin K was 3.12 nM; at human cathepsin F, 2490 nM.
For `N#CC1(NC(=O)[C@@H]2CCCC[C@H]2c2oc(-c3cncc(F)c3)nc2-c2ccc(N3CCS(=O)(=O)CC3)cc2)CC1` [Example 33, (1R,2R)-N-(1-cyanocyclopropyl)-2-(4-(4-(1,1-dioxidothiomorpholino)phenyl)-2-(5-fluoropyridin-3-yl)oxazol-5-yl)cyclohexanecarboxamide] the same measures were 1.99 nM and 1320 nM.
For `N#CC1(NC(=O)[C@@H]2CCCC[C@H]2c2oc(-c3cc(F)cc(F)c3)nc2-c2ccc(N3CCS(=O)(=O)CC3)cc2)CC1` [Example 34, (1R,2R)-N-(1-cyanocyclopropyl)-2-(2-(3,5-difluorophenyl)-4-(4-(1,1-dioxidothiomorpholino)phenyl)oxazol-5-yl) cyclohexanecarboxamide], the IC50 came to 0.85 nM at human cathepsin K and 442 nM at human cathepsin F.
For the compound `N#CC1(NC(=O)[C@@H]2CCCC[C@H]2c2oc(-c3cncnc3)nc2-c2ccc(N3CCS(=O)(=O)CC3)cc2)CC1` [Example 35, (1R,2R)-N-(1-cyanocyclopropyl)-2-(4-(4-(1,1-dioxidothiomorpholino)phenyl)-2-(pyrimidin-5-yl)oxazol-5-yl) cyclohexanecarboxamide], the IC50 stood at 1.11 nM at human cathepsin K and 993 nM at human cathepsin F.
For `N#CC1(NC(=O)[C@@H]2CCCC[C@H]2c2oc(-c3ccc(F)c(Cl)c3)nc2-c2ccc(N3CCS(=O)(=O)CC3)cc2)CC1` [Example 36, (1R,2R)-2-(2-(3-chloro-4-fluorophenyl)-4-(4-(1,1-dioxidothiomorpholino)phenyl)oxazol-5-yl)-N-(1-cyanocyclopropyl) cyclohexanecarboxamide] the same measures were 0.94 nM and 382 nM.
For `N#CC1(NC(=O)[C@@H]2CCCC[C@H]2c2oc(-c3ccc(F)cc3Cl)nc2-c2ccc(N3CCS(=O)(=O)CC3)cc2)CC1` [Example 37, (1R,2R)-2-(2-(2-chloro-4-fluorophenyl)-4-(4-(1,1-dioxidothiomorpholino)phenyl)oxazol-5-yl)-N-(1-cyanocyclopropyl) cyclohexanecarboxamide] the same measures were 0.72 nM and 353 nM.
